These results are taken from US5298494A, “Monosaccharides having anti-proliferation and anti-inflammatory activity, compositions and uses thereof” (Greenwich Pharmaceuticals Incorporated, priority 1993, dated 1994).

Read-outs that look alike come from different tables or passages of the source.

In assay [1] the test system is T cell proliferation in mouse spleen cell mixed lymphocyte cultures. In words: Mixed Lymphocyte Reaction (MLR) assay. It counts as cell-based, mouse (Balb/c responder, C57B1/6 stimulator). An excerpt:
The pharmacologic assays performed to determine the immunomodulatory effects of the experimental compounds in vitro include the Mixed Lymphocyte Reaction (MLR) and the ConA blastogenesis assay. These assays were used to determine the inhibitory effects of the compounds of the invention on T lymphocyte activation and proliferation. Since inflammation at the cellular level is characterized by T lymphocyte recruitment, activation and proliferation, these assays are appropriate to use as screens for novel compounds having therapeutic potential in the treatment of disorders in which inflammatory mechanisms are involved.
The MLR is a classical assay used to measure T cell function by studying the proliferative response of T cells which are activated in vitro by genetically disparate stimulator cells. This is accomplished by co-culturing spleen cells from two different strains of mice. Splenic T cell proliferation occurs as a result of cellular activation signals generated by the ongoing cellular interactions.
Balb/c mice were euthanised by cervical dislocation and their spleens removed. Single cell suspensions of the spleens were prepared in culture medium (hepes buffered RPMI-1640 supplemented with 10% fetal calf serum, 2mM glutamine, 500 units penicillin/ streptomycin, and 4×10^-5 M 2-mercaptoethanol) using a Teflon pestle. The cells were centrifuged at 1500 rpm and the pellets resuspended in ACT (0.15M tris, 0.14M ammonium chloride, pH 7.2) in order to lyse the red blood cells. After a 5 minute incubation in a 37 C. waterbath, the cells were resuspended in culture medium and counted. C57B1/6 spleen cells which were used as stimulator cells, were also prepared by this method. The stimulator cells were treated with 100 ug/ml of mitomycin c for 1 hour at 37 C. (to inhibit stimulatory cell proliferation) and were then washed 5 times in culture medium. The proliferative responses were measured by culturing 2.5×10^5 responder cells with 5×10^5 stimulatory cells in 96 well microtiter plates in the presence or absence of various doses of test compounds or vehicle (DMSO). Syngeneic control cultures using mitomycin c treated Balb/c spleen cells as stimulator cells were also run. All cultures were run in triplicate.
Solutions of compounds of the present invention in DMSO were prepared at a stock concentration of 120 Mm. Dilutions were made in culture medium to the following concentrations: 3, 10, 30, 100, and 300 uM. The vehicle (DMSO) was used as a negative control.
After incubation of for 5 days at 37 C. with 5% CO2, the amount of cell proliferation was measured by adding 20 ul of MTT (3-[4,5-dimethylthiazol-2-yl]-2,5diphenyl-tetrazolium bromide) (10 mg/ml in phosphate buffered saline) to each well. Plates were incubated for 4 hours at 37 C., after which 180 ul of 10% sodium dodecyl sulphate in phosphate buffered saline was added. After an overnight incubation, the optical density (OD) of each well was read on a Molecular Devices microplate reader at 570-650 nm. The results were determined by calculating the difference between the means of the allogeneic cultures and the means of the syngenic cultures for each test article concentration. Differences of the test article groups were compared to the control group and the percent change from the control was determined.

Assay [2] concerns T lymphocytes (normal mouse spleen cells) stimulated with ConA. In words: Mouse Spleen Cell ConA Blastogenesis Assay. It counts as cell-based, mouse (C57Bl/6). The following applies: Mus musculus, T-lymphocyte; for inhibition at 1 µg/mL: compound 1 ug/ml; for inhibition at 2.5 µg/mL: compound 2.5 ug/ml; for inhibition at 10 µg/mL: compound 10 ug/ml; for inhibition at 25 µg/mL: compound 25 ug/ml; for inhibition at 0.1 µg/mL: compound 0.1 ug/ml. An excerpt:
It is well known that several plant lectins, when cultured in vitro with lymphocytes, stimulate cellular activation and proliferation. Concanavolin, (ConA) selectively stimulates the blastogenic response of T lymphocytes.
Six to 8 week old male C57Bl/6 mice were purchased from Harlan Sprague Dawley (Indianapolis, Ind.).
Spleens were removed and were homogenized to obtain a single cell suspension. Erythrocytes were lysed by hypotonic shock. Upon determination of the viability and concentration of the lymphoid cells, they were adjusted to 4×10^6 cells/ml in culture medium (RPMI-1640) supplemented with 10% fetal bovine serum; 100 ug/ml streptomycin; 100 U/ml penicillin, 0.2M hepes buffer; 5×10^-5 M 2-mercaptoethanol and 2 mM glutamine). seeded into microtiter plate wells at 2×10^5 cells/0.050 ml/well. To these cultures were added various doses of experimental compounds and ConA at a final concentration of 4 or 1 ug/ml. Control cultures consisted of cells, ConA and culture medium containing the vehicle, DMSO only. […] For the testing of the methyl 1,3-O-isopropylidene-6-O-n-heptyl-α-D-fructofuranoside compound indomethacin and NDGA were used as controls. All cultures were run in triplicate.
Solutions of compounds of the invention in DMSO were prepared and dilutions were made in culture medium. Assay concentrations were either: 1, 2.5, 10, 25, 100, 300 and 750 ug/ml or 0.001, 0.01, 0.1, 1, 2.5, 10, 25 and 100 ug/ml.
Cultures were incubated for 3 days at 37° C. in a humidified atmosphere of 5% of CO2 in air. For the last 18 hours of culture, 1 uCi of ^3 H-thymidine was also incubated in each well. The cells were precipitated by a multi-channel harvester. The amount of ^3 H-thymidine incorporated by the cultures, as a measure of cell proliferation, was measured in a liquid scintillation counter. The amount of radioactive incorporation is proportional to the amount of cellular proliferation in individual wells. The students T test was used to determine the significance of the difference between experimental and control values.

Setting [3] is: Mus musculus, Lymphocyte, 3 um, read-out: % Change From Control, MLR.
The mark [4] stands for this setting: Mus musculus, Lymphocyte, 10 um, read-out: % Change From Control, MLR.
[5] abbreviates: Mus musculus, Lymphocyte, 30 um, read-out: % Change From Control, MLR.
[6] abbreviates: Mus musculus, Lymphocyte, 100 um, read-out: % Change From Control, MLR.
Where [7] appears, read: ConA 1 ug/ml, read-out: % change from control, ConA blastogenic response.
Where [8] appears, read: ConA 1 ug/ml, compound 100 ug/ml, read-out: % change from control, ConA blastogenic response.
The mark [9] stands for this setting: ConA 4 ug/ml, read-out: % change from control, ConA blastogenic response.
The mark [10] stands for this setting: ConA 4 ug/ml, compound 100 ug/ml, read-out: % change from control, ConA blastogenic response.

As for `CCCCCCCCCCCCCCCOCC(O)C1OC2OC(C)(C)OC2C1O` [IIId, 1,2-O-Isopropylidene-6-O-pentadecyl-α-D-glucofuranose], the “Mean O.D. Allogenic” value was determined as 0.210 O.D in assay [1] (3 um); 0.197 O.D in assay [1] (10 um); 0.104 O.D in assay [1] (30 um); 0.021 O.D in assay [1] (100 um); 0.015 O.D in assay [1] (300 um). Moreover, the “Mean O.D. Syngeneic” value in assay [1] (3 um) worked out at 0.138 O.D; in assay [1] (10 um), 0.128 O.D; in assay [1] (30 um), 0.032 O.D; in assay [1] (100 um), 0.019 O.D. Moreover, in assay [1] (setting [3]), the inhibition at 3 µM stood at 13%. Also, the inhibition at 10 µM in assay [1] (setting [4]) was found to be 17%. Also, in assay [1] (setting [5]), the inhibition at 30 µM is 13%. Moreover, the inhibition at 100 µM in assay [1] (setting [6]) was determined as 98%.
For `CCCCCCCCCCCCOC1C(C(O)CO)OC2OC(C)(C)OC21` [IIa, 1,2-O-Isopropylidene-3-O-n-dodecyl-α-D-glucofuranose], the “% Change From Control, MLR” value is listed as -19% in assay [1] (Table X, 3 ugm); -40% in assay [1] (Table X, 10 ugm); 23% in assay [1] (Table X, 30 ugm); -86% in assay [1] (Table X, 100 ugm); -96% in assay [1] (Table X, 300 ugm). The “Mean O.D. Allogenic” value came out at 0.185 O.D in assay [1] (Table X, 10 ugm) and 0.158 O.D in assay [1] (Table X, 30 ugm). Besides, the “Mean O.D. Syngeneic” value turned out to be 0.135 O.D in assay [1] (Table X, 10 ugm) and 0.056 O.D in assay [1] (Table X, 30 ugm). Moreover, the “strong non-dose dependent inhibition in MLR” value in assay [1] (several concentrations) was “greater than -50 % of control”. The inhibition at 100 µg/mL is less than 50% in assay [2] (100 ug/ml, read-out: strong inhibition of ConA stimulated T lymphocyte proliferation); 100% in assay [2] (setting [8]); 100% in assay [2] (setting [10]). Also, the results for the inhibition at 1 µg/mL in assay [2] (setting [7]) and in assay [2] (setting [9]) were 21% and 33%, respectively. Further, the values for the inhibition at 2.5 µg/mL in assay [2] (setting [7]) and in assay [2] (setting [9]) were 60% and 50%, respectively. Also, the results for the inhibition at 10 µg/mL in assay [2] (setting [7]) and in assay [2] (setting [9]) were 95% and 83%, respectively. In addition, the results for the inhibition at 25 µg/mL in assay [2] (setting [7]) and in assay [2] (setting [9]) were 99% and 94%, respectively.
For `CCCCCCCOC[C@H]1O[C@](COCC)(OC)[C@@H](OCC)[C@@H]1O` [Ib, methyl 1,3-di-O-ethyl-6-O-heptyl-α-D-fructofuranoside], the “Mean O.D. Allogenic” value in assay [1] (3 um) was found to be 0.319 O.D; in assay [1] (10 um), 0.382 O.D; in assay [1] (30 um), 0.372 O.D; in assay [1] (100 um) it was 0.353 O.D; in assay [1] (300 um), 0.265 O.D. The “Mean O.D. Syngeneic” value in assay [1] (3 um) was determined as 0.162 O.D; in assay [1] (10 um), 0.194 O.D; in assay [1] (30 um) it was 0.185 O.D; in assay [1] (100 um) it was 0.223 O.D; in assay [1] (300 um) it was 0.189 O.D. The inhibition at 3 µM in assay [1] (setting [3]) was 18%. Moreover, the inhibition at 10 µM in assay [1] (setting [4]) stood at 2%. In addition, the inhibition at 30 µM in assay [1] (setting [5]) is 3%. Besides, in assay [1] (setting [6]), the inhibition at 100 µM amounted to 32%. Moreover, the inhibition at 300 µM in assay [1] (Mus musculus, Lymphocyte, 300 um, read-out: % Change From Control, MLR) turned out to be 60%. Also, the inhibition at 0.01 µg/mL in assay [2] (ConA 1 ug/ml, 0.01 ug/ml, read-out: % Change from Control (Table II)) is 55%; in assay [2] (ConA 1 ug/ml, compound 0.01 ug/ml, read-out: % change from control, ConA blastogenic response) it was 57%; in assay [2] (ConA 4 ug/ml, 0.01 ug/ml, read-out: % Change from Control (Table II)) it was 25%; in assay [2] (ConA 4 ug/ml, compound 0.01 ug/ml, read-out: % change from control, ConA blastogenic response), 35%. For the same molecule, the inhibition at 0.1 µg/mL in assay [2] (setting [7]) was 66%; in assay [2] (setting [9]), 45%. Moreover, the inhibition at 1 µg/mL in assay [2] (setting [7]) stood at 72%; in assay [2] (setting [9]), 67%. The inhibition at 2.5 µg/mL in assay [2] (setting [7]) was 92%; in assay [2] (setting [9]), 68%. The results for the inhibition at 10 µg/mL in assay [2] (setting [7]) and in assay [2] (setting [9]) were 96% and 76%, respectively. Further, the values for the inhibition at 25 µg/mL in assay [2] (setting [7]) and in assay [2] (setting [9]) were 97% and 86%, respectively. The inhibition at 100 µg/mL in assay [2] (setting [8]) and in assay [2] (setting [10]) was 99% in each case.
